Reference: patent US8329717B2, “Pyrimidine derivatives and their use for controlling undesired plant growth” (Bayer Cropscience AG, priority 2008, dated 2012)

Legend:
[1] = logp (HCOOH), chemicophysical data; conditions: HCOOH
Veronica persica = experiment: Pre-emergence herbicidal effect; type: in vivo; conditions: Dosage 320 g/ha, visual scoring after 3 weeks vs untreated controls, 100% = plants have died
Excerpt: (§1) 1. Pre-Emergence Herbicidal Effect and Crop Plant Compatibility Seeds of monocotyledonous or dicotyledonous weed plants or crop plants are planted in wood-fiber pots in sandy loam and covered with earth. The compounds according to the invention, formulated in the form of wettable powders (WP) or as emulsion concentrates (EC), are then applied as aqueous suspension or emulsion at a water application rate of 600 to 800 l/ha (converted) with the addition of 0.2% of wetting agent to the surface of the covering earth. The dosage of the compounds according to the invention is given in grams per hectare. Following the treatment, the pots are placed in a greenhouse and kept under good growth conditions for the test plants. The visual scoring of the damage on the test plants is carried out after an experiment time of 3 weeks in comparison with untreated controls (herbicidal effect in percent (%): 100% effect=plants have died, 0% effect=as control plants). The following abbreviations are used in the tables below: [table]

Viola tricolor = experiment: Pre-emergence herbicidal effect; type: in vivo; conditions: Dosage 320 g/ha, visual scoring after 3 weeks vs untreated controls, 100% = plants have died
Excerpt: as §1

Matricaria inodora = experiment: Pre-emergence herbicidal effect; type: in vivo; conditions: Dosage 320 g/ha, visual scoring after 3 weeks vs untreated controls, 100% = plants have died
Excerpt: as §1

Setaria viridis = experiment: Pre-emergence herbicidal effect; type: in vivo; conditions: Dosage 320 g/ha, visual scoring after 3 weeks vs untreated controls, 100% = plants have died
Excerpt: as §1

Amaranthus retroflexus = experiment: Pre-emergence herbicidal effect; type: in vivo; conditions: Dosage 320 g/ha, visual scoring after 3 weeks vs untreated controls, 100% = plants have died
Excerpt: as §1

Polygonum convolvulus = experiment: Pre-emergence herbicidal effect; type: in vivo; conditions: Dosage 320 g/ha, visual scoring after 3 weeks vs untreated controls, 100% = plants have died
Excerpt: as §1

Stellaria media = experiment: Pre-emergence herbicidal effect; type: in vivo; conditions: Dosage 320 g/ha, visual scoring after 3 weeks vs untreated controls, 100% = plants have died
Excerpt: as §1

Lolium multiflorum = experiment: Pre-emergence herbicidal effect; type: in vivo; conditions: Dosage 320 g/ha, visual scoring after 3 weeks vs untreated controls, 100% = plants have died
Excerpt: as §1

SMILES | logp (HCOOH) [1] | also measured
Cc1ccc2c(c1)C(Nc1ncc(I)c(N)n1)C(C)C2 (mixture of isomers) [Example 1.87] | wax-like; logp (HCOOH): 1.37; 1H-NMR (CDCl3, 400 MHZ, δ in ppm): 1.25 (d, 3H, CH3); | –
Cc1nc(NC2CCOc3ccc(C(C)C)cc32)nc(N)c1C#N (racemic) [Example 1.27] | solid, m.p.: 158.8° C.; logp (HCOOH): 2.51; 1H-NMR (CDCl3, 400 MHZ, δ in ppm): 1.15 | –
N#Cc1c(N)nc(NC2CCCc3ccccc32)nc1C(F)(F)F (racemic) [Example 1.29] | solid; m.p.: 205.8° C.; logp (HCOOH): 3.43; 1H-NMR (CDCl3, 400 MHZ, δ in ppm): 1.85 | –
Cc1nc(NC2CCCc3ccccc32)nc(N)c1[N+](=O)[O-] (racemic) [Example 1.124] | – | Pre-emergence herbicidal effect VERPE (Veronica persica): 100%; Pre-emergence herbicidal effect VIOTR (Viola tricolor): 100%; Pre-emergence herbicidal effect MATIN (Matricaria inodora): 90%; Pre-emergence herbicidal effect SETVI (Setaria viridis): 80%; Pre-emergence herbicidal effect AMARE (Amaranthus retroflexus): 100%; Pre-emergence herbicidal effect POLCO (Polygonum convolvulus): 90%; Pre-emergence herbicidal effect STEME (Stellaria media): 100%
COC(=O)c1cc(N)nc(NC2CCCc3ccccc32)n1 (racemic) [Example 1.212] | wax-like; logp (HCOOH): 2.54; 1H-NMR (CDCl3, 400 MHZ, δ in ppm): 1.80-2.10 (m, | –
N#Cc1cnc(NC2CCc3cc(Cl)ccc32)nc1N (racemic) [Example 1.216] | wax-like; logp (HCOOH): 2.18; 1H-NMR (CDCl3, 400 MHZ, δ in ppm): 1.80 (m, 1H, 1H | –
Cc1nc(NC2CCc3cc(Cl)ccc32)nc(N)c1C#N (racemic) [Example 1.217] | wax-like; logp (HCOOH): 2.21; 1H-NMR (CDCl3, 400 MHZ, δ in ppm): 1.80 (m, 1H, 1H | –
Cc1nc(NC2(C)CCCc3ccccc32)nc(N)c1C#N (racemic) [Example 1.224] | wax-like; logp (HCOOH): 3.37; 1H-NMR (CDCl3, 400 MHZ, δ in ppm): 1.80 (m, 1H, 1H | –
CCc1ccc2c(c1)C(Nc1ncc(C(F)(F)F)c(N)n1)CCO2 (racemic) [Example 1.238] | wax-like; logp (HCOOH): 2.02; 1H-NMR (CDCl3, 400 MHZ, δ in ppm): 1.15 (t, 3H, CH3); | –
COc1ccc2c(c1)C(Nc1ncc(C(F)(F)F)c(N)n1)CCO2 (racemic) [Example 1.239] | wax-like; logp (HCOOH): 1.46 | –
CC1(C)CC(Nc2ncc(C(F)(F)F)c(N)n2)c2cc(F)c(Cl)cc2O1 (racemic) [Example 1.241] | wax-like; logp (HCOOH): 2.83; 1H-NMR (CDCl3, 400 MHZ, δ in ppm): 1.30 (s, 3H, CH3); | –
CC1Cc2ccc(F)cc2C1Nc1ncc(C(F)(F)F)c(N)n1 (racemic) [Example 1.243] | wax-like; logp (HCOOH): 1.93; 1H-NMR (CDCl3, 400 MHZ, δ in ppm): 0.95 (d, 3H, CH3); | –
Cc1cccc2c1CCC2Nc1ncc(C(F)(F)F)c(N)n1 (racemic) [Example 1.254] | wax-like; logp (HCOOH): 1.75; 1H-NMR (CDCl3, 400 MHZ, δ in ppm): 2.10 (s, 3H, | –
Cc1cc(C)c2c(c1)C(Nc1ncc(C#N)c(N)n1)CCC2 (racemic) [Example 1.271] | wax-like; logp (HCOOH): 2.60; 1H-NMR (CDCl3, 400 MHZ, δ in ppm): 1.85 (m, 3H, 3H | –
Cc1ccc2c(c1)[C@H](Nc1nccc(N)n1)[C@@H](C)C2 [Example 1.38] | wax-like; logp (HCOOH): 1.25; 1H-NMR (CDCl3, 400 MHZ, δ in ppm): 1.25 (m, 3H, CH3); | –
C[Si](C)(C)C#Cc1cnc(N[C@@H]2CCCc3ccccc32)nc1N [Example 1.39] | wax-like; logp (HCOOH): 1.86; 1H-NMR (CDCl3, 400 MHZ, δ in ppm): 0.25 (s, 9H, CH3); | –
Cc1ccc2c(c1)[C@H](Nc1nc(C)cc(N)n1)[C@@H](C)C2 [Example 1.41] | wax-like; logp (HCOOH): 1.12; 1H-NMR (DMSO, 400 MHZ, δ in ppm): 1.15 (d, 3H, CH3); | –
Cc1ccc2c(c1)[C@H](Nc1ncc(C)c(N)n1)[C@@H](C)C2 [Example 1.51] | – | Pre-emergence herbicidal effect VERPE (Veronica persica): 100%; Pre-emergence herbicidal effect MATIN (Matricaria inodora): 100%; Pre-emergence herbicidal effect LOLMU (Lolium multiflorum): 100%; Pre-emergence herbicidal effect STEME (Stellaria media): 100%
Cc1ccc2c(c1)[C@H](Nc1nc(N)c(C#N)c(C(C)C)n1)[C@@H](C)C2 [Example 1.64] | wax-like; logp (HCOOH): 3.90; 1H-NMR (CDCl3, 400 MHZ, δ in ppm): 1.25 (m, 9H, | –
CC(C)c1nc(N[C@@H]2CCCc3ccccc32)nc(N)c1C#N [Example 1.66] | wax-like; logp (HCOOH): 3.34; 1H-NMR (CDCl3, 400 MHZ, δ in ppm): 1.25 (m, 6H, | –
Nc1cc(Cl)nc(N[C@@H]2CCCc3ccccc32)n1 [Example 1.76] | – | Pre-emergence herbicidal effect VERPE (Veronica persica): 100%; Pre-emergence herbicidal effect MATIN (Matricaria inodora): 100%; Pre-emergence herbicidal effect AMARE (Amaranthus retroflexus): 90%; Pre-emergence herbicidal effect STEME (Stellaria media): 100%
Cc1ccc2c(c1)[C@H](Nc1nc(N)c(C#N)c(-c3ccccc3C)n1)[C@@H](C)C2 [Example 1.77] | solid; logp (HCOOH): 3.83; 1H-NMR (CDCl3, 400 MHZ, δ in ppm): 1.25 (m, 3H, CH3); | –
